US7759369B2, “Pyridine compounds for the treatment of prostaglandin mediated diseases” (Glaxo Group Limited, priority 2004, dated 2010)
Counter-ions that a name gives are not always drawn.

Columns and labels:
Format in all cases: cell-based
EP3 receptors = target: T1, EP3 receptors (Homo sapiens, UniProt P43115); assay: human EP3 calcium mobilisation assay (CHO-K1 cells, PGE2, FLIPR); conditions: free bases or sodium salts; averages of a number of experiments; read-out: functional pKi value, human EP3 calcium mobilisation assay (converted)
T1 construct: expressed in transfected cells; host or cells: CHO-K1
T1 sequence (P43115 1-390): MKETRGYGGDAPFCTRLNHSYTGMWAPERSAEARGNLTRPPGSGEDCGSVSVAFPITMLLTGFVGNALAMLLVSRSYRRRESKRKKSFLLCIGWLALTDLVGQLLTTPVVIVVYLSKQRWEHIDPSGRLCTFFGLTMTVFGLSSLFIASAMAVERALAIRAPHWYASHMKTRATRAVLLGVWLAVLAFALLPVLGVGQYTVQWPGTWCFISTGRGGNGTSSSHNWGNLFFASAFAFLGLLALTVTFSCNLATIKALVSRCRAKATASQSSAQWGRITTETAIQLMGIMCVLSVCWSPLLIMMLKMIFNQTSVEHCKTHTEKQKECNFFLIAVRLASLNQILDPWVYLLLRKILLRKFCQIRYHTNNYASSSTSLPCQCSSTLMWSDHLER
Description: (§1) Briefly, the antagonist properties of compounds are assessed by their ability to inhibit the mobilisation of intracellular calcium ([Ca^2+]i) in response to activation of EP1 or EP3 receptors by the natural agonist hormone prostaglandin E2 (PGE2). Increasing concentrations of antagonist reduce the amount of calcium that a given concentration of PGE2 can mobilise. The net effect is to displace the PGE2 concentration-effect curve to higher concentrations of PGE2. The amount of calcium produced is assessed using a calcium-sensitive fluorescent dye such as Fluo-4, AM and a suitable instrument such as a Fluorimetric Imaging Plate Reader (FLIPR). Increasing amounts of [Ca^2+]i produced by receptor activation increase the amount of fluorescence produced by the dye and give rise to an increasing signal. The signal may be detected using the FLIPR instrument and the data generated may be analysed with suitable curve-fitting software.
(§2) The human EP1 or EP3 calcium mobilisation assay (hereafter referred to as ‘the calcium assay’) utilises Chinese hamster ovary-K1 (CHO-K1) cells into which a stable (pCIN; BioTechniques 20 (1996): 102-110) vector containing either EP1 or EP3 cDNA has previously been transfected. Cells are cultured in suitable flasks containing culture medium such as DMEM:F-12 supplemented with 10% v/v foetal calf serum, 2 mM L-glutamine, 0.25 mg/ml geneticin, 100 μM flurbiprofen and 10 µg/ml puromycin.
(§3) For assay, cells are harvested using a proprietary reagent that dislodges cells such as Versene. Cells are re-suspended in a suitable quantity of fresh culture media for introduction into a 384-well plate. Following incubation for 24 hours at 37° C. the culture media is replaced with a medium containing Fluo-4 and the detergent pluronic acid, and a further incubation takes place. Concentrations of compounds are then added to the plate in order to construct concentration-effect curves. This may be performed on the FLIPR in order to assess the agonist properties of the compounds. Concentrations of PGE2 are then added to the plate in order to assess the antagonist properties of the compounds.
(§4) The data so generated may be analysed by means of a computerised curve-fitting routine. The concentration of compound that elicits a half-maximal inhibition of the calcium mobilisation induced by PGE2 (pIC50) may then be estimated.

TP receptor = target: T2, TP receptor (Homo sapiens, UniProt P21731); assay: human TP calcium mobilisation assay (CHO-K1 cells, U46619, FLIPR); conditions: free bases or sodium salts; read-out: functional pKi, human TP calcium mobilisation assay (converted)
T2 construct: expressed in transfected cells; host or cells: CHO-K1
T2 sequence (P21731 1-343): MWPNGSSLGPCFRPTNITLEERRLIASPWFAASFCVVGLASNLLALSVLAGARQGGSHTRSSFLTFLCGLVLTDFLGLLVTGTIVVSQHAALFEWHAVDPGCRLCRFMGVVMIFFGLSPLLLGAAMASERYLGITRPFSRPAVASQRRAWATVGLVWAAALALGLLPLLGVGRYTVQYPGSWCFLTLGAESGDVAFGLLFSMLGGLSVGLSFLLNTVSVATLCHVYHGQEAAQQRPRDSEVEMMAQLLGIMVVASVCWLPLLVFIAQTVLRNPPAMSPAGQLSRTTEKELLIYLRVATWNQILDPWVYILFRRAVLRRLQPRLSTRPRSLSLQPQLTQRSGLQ
Description: as §1, with “To determine if a compound has agonist or antagonist activity at the TP receptor a functional calcium mobilisation assay may be performed. Briefly,” for “Briefly,”, “TP” for “EP1 or EP3”, “stable TXA2 mimetic U46619 (9,11-dideoxy-11α,9α-epoxy-methanoprostaglandin F2 α; commercially available from e.g Sigma-Aldrich).” for “natural agonist hormone prostaglandin E2 (PGE2).”, “U46619” for “PGE2”, “curve.” for “curve to higher concentrations of PGE2.”, “software. The agonist activity of the compounds are determined by their ability to cause an increase in intracellular mobilisation in the absence of U46619.” for “software.”
as §2, with “TP” for “EP1 or EP3”, “assay” for “assay (hereafter referred to as ‘the calcium assay’)”, “TP” for “either EP1 or EP3”, “μg/ml” for “µg/ml”
as §3, with “96-well” for “384-well”, “U46619” for “PGE2”
The data so generated may be analysed by means of a computerised curve-fitting routine. The concentration of compound that elicits a half-maximal inhibition of the calcium mobilisation induced by U46619 (plC50) may then be estimated, and the percentage activation caused by the compounds directly can be used to determine if there is any agonism present.

EP1 receptors = target: T3, EP1 receptors (Homo sapiens, UniProt P34995); assay: human EP1 calcium mobilisation assay (CHO-K1 cells, PGE2, FLIPR); set-up: expressed in transfected cells; host or cells: CHO-K1; conditions: free bases or sodium salts; averages of a number of experiments; read-out: functional pKi value, human EP1 calcium mobilisation assay (converted)
T3 sequence (P34995 1-402): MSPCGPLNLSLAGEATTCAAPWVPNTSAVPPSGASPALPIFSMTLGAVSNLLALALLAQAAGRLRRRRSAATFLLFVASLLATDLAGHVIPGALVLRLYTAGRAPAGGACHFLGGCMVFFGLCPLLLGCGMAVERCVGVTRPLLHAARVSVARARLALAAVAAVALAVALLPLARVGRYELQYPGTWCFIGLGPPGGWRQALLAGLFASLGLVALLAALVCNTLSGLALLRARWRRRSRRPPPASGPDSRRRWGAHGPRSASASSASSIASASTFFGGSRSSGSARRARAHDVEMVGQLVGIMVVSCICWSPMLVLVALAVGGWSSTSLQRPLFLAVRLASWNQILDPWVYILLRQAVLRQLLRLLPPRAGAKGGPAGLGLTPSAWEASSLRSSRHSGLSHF
Description: as §1, §2, §3, §4

Structure (SMILES)	Ki (EP3 receptors) [nM]	Ki (TP receptor) [nM]	Ki (EP1 receptors) [nM]
CC(C)COc1ccc(Cl)cc1Cc1cccc(C(=O)O)n1 [Example 15, Sodium 6-({5-chloro-2-[(2-methylpropyl)oxy]phenyl}methyl)-2-pyridinecarboxylate]	> 10000	> 1000	< 1000
Cc1ccc(Cc2cc(Cl)ccc2OCc2ccc(Cl)cc2F)nc1C(=O)O [Example 40, 6-[(5-Chloro-2-{[(4-chloro-2-fluorophenyl)methyl]oxy}-phenyl)methyl]-3-methyl-2-pyridinecarboxylic acid, sodium salt]	> 10000		> 1000
O=C(O)c1cccc(Cc2cc(Cl)ccc2OCc2ccc(F)cc2)n1 [Example 5, sodium 6-[(5-chloro-2-{[(4-fluorophenyl)methyl]oxy}phenyl)methyl]-2-pyridinecarboxylate]		< 1000	< 1000
CC(=O)Nc1ccc(S(=O)(=O)NC(=O)c2cccc(Cc3cc(Cl)ccc3OCc3ccc(Cl)cc3F)n2)cc1 [Example 35, N-{[4-(Acetylamino)phenyl]-sulphonyl}-6-[(5-chloro-2-{[(4-chloro-2-fluorophenyl)methyl]-oxy}phenyl)methyl]-2-pyridine-carboxamide]	> 10000		< 1000
C=C(C)COc1ccc(Cl)cc1Cc1cccc(C(=O)O)n1 [Example 2, 6-({5-Chloro-2-[(2-methyl-2-propen-1-yl)oxy]phenyl}methyl)-2-pyridinecarboxylic acid]	> 10000		≤ 31.6
COc1ccc(S(=O)(=O)NC(=O)c2cccc(Cc3cc(Cl)ccc3OCc3ccc(Cl)cc3F)n2)cc1 [Example 32, 6-[(5-Chloro-2-{[(4-chloro-2-fluorophenyl)methyl]oxy}-phenyl)methyl]-N-{[4-methoxyphenyl]suiphonyl}-2-pyridine-carboxamide]	> 10000		> 1000
O=C(O)c1cccc(Cc2cc(Cl)ccc2OCC2CCCCC2)n1 [Example 18, Sodium 6-({5-chloro-2-[(cyclohexylmethyl)oxy]phenyl}methyl)-2-pyridinecarboxylate]			≤ 31.6
O=C(O)c1cccc(Cc2cc(Cl)ccc2OCc2ccccc2)n1 [Example 1, 6-({5-Chloro-2-[(phenylmethyl)oxy]phenyl}methyl)-2-pyridinecarboxylic acid]		> 1000	
CC(C)Oc1ccc(Cl)cc1Cc1cccc(C(=O)O)n1 [Example 16, Sodium 6-({5-chloro-2-[(1-methylethyl)oxy]phenyl}methyl)-2-pyridinecarboxylate]	> 10000		< 1000
O=C(O)c1cc(Cl)cc(Cc2cc(Cl)ccc2OCc2ccc(Cl)cc2F)n1 [Example 37, 4-Chloro-6-[(5-chloro-2-{[(4-chloro-2-fluorophenyl)-methyl]oxy}phenyl)methyl]-2-pyridinecarboxylic acid, sodium salt]			≤ 31.6
O=C(NS(=O)(=O)c1cc(Cl)cc(Cl)c1)c1cccc(Cc2cc(Cl)ccc2OCc2ccc(Cl)cc2F)n1 [Example 31]	> 10000		> 1000
O=C(O)c1cccc(Cc2cc(Cl)ccc2OCc2ccc(F)c(F)c2F)n1 [Example 7, Sodium 6-[(5-chloro-2-{[(2,3,4-trifluorophenyl)methyl]oxy}phenyl)methyl]-2-pyridinecarboxylate]		< 1000	< 1000
O=C(O)c1cccc(Cc2cc(Cl)ccc2OCc2ccccc2Cl)n1 [Example 13, Sodium 6-[(5-chloro-2-{[(2-chlorophenyl)methyl]oxy}phenyl)methyl]-2-pyridinecarboxylate]		> 1000	≤ 31.6
O=C(O)c1cccc(Cc2cc(Cl)ccc2OCC2CC2)n1 [Example 17, Sodium 6-({5-chloro-2-[(cyclopropylmethyl)oxy]phenyl}methyl)-2-pyridinecarboxylate]	> 10000		< 1000
O=C(O)c1cccc(Cc2cc(Cl)ccc2OCc2ccccc2F)n1 [Example 8, Sodium 6-[(5-chloro-2-{[(2-fluorophenyl)methyl]oxy}phenyl)methyl]-2-pyridinecarboxylate]	> 10000	< 1000	< 1000
CCC(CC)COc1ccc(Cl)cc1Cc1cccc(C(=O)O)n1 [Example 20, Sodium 6-({5-chloro-2-[(2-ethylbutyl)oxy]phenyl}methyl)-2-pyridinecarboxylate]			< 1000
O=C(O)c1cccc(Cc2cc(Cl)ccc2OCc2c(F)cc(F)cc2F)n1 [Example 6, Sodium 6-[(5-chloro-2-{[(2,4,6-trifluorophenyl)methyl]oxy}phenyl)methyl]-2-pyridinecarboxylate]		< 1000	< 1000
O=C(O)c1cccc(Cc2cc(Cl)ccc2OC2CCCC2)n1 [Example 19, Sodium 6-{[5-chloro-2-(cyclopentyloxy)phenyl]methyl}-2-pyridinecarboxylate]	> 10000		< 1000
